Measurements from patent US20100075907A1, “NEUROMEDIN U RECEPTOR AGONISTS AND USES THEREOF” (priority 2006, published 2010).
Non-standard residues stand in square brackets, D forms with d. Residues, ends and D or L forms follow the SMILES beside them. No end group written: not given here. *: point of attachment. X1 = CC(C)CCC[C@@H](C)[C@H]1CC[C@H]2[C@@H]3CC=C4C[C@@H](OC(=O)C*)CC[C@]4(C)[C@H]3CC[C@]12C; Succinimide(1-Et,3-yl) = CCN1C(=O)CC(*)C1=O; Palmitoyl = CCCCCCCCCCCCCCCC(=O)*

Legend:
rat NMUR1-ATG = molecular target: T1, rat NMUR1-ATG (Rattus norvegicus, UniProt Q9JJI5); assay: FLIPR calcium mobilization assay, rat NMUR1-ATG; format: cell-based; set-up: expressed in transfected cells; host or cells: FLP-In CHO or HEK-293 FLP-In cells (pcDNA5); details: for EC50: FLIPR
T1 sequence (Q9JJI5 1-425): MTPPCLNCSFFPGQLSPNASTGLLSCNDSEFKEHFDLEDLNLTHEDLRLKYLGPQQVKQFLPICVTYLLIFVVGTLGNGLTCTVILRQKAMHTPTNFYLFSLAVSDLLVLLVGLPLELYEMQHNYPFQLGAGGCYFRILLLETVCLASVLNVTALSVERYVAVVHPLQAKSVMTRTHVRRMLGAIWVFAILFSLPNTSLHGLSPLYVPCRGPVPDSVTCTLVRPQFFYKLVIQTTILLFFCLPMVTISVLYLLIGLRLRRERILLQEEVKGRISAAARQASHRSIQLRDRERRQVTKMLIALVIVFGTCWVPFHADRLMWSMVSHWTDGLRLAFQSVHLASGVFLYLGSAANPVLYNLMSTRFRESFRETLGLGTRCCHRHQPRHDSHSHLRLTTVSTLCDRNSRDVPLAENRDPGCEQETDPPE
Source text: (§1) Human, mouse or rat cDNAs encoding NMUR1 or NMUR2 (as described in Howard et al. Nature 406: 70-74 (2000) were subcloned in pcDNA5 (Invitrogen) and transfected into FLP-In CHO cells and HEK-293 FLP-In cells purchased from Invitrogen (Carlsbad, Calif.) using lipofectamine (Invitrogen). The Flp-In system allows integration and expression of a particular gene of interest at a specific genomic location utilizing the Flp recombinase from yeast. The transfected cells were selected by growth in medium containing 200 μg/mL hygromycin (Invitrogen). Populations were frozen at early passage numbers, and these stocks were used for further studies. Stable clones that expressed the mRNAs were identified functionally by FLIPR as well as by RT-PCR. […] Two different rodent NMUR1 cell lines were thus generated: one with the codon as predicted from the genomic databases and another cell line with an engineered methionine (ATG) as the start codon. Additionally, stable cell lines expressing the human receptors were generated in HEK-293/aeq17 cells which stably express the aequorin gene under the CMV promoter. The human NMUR2 cDNA was cloned into pcDNA3.1 and human NMUR1 was subcloned into pIRES-puro (Clontech, Mountain View, Calif.), after transfection cells were selected in media containing G418 and either hygromycin (NMUR2) or puromycin (NMUR1).
(§2) The NMU receptors signal primarily through Gαq/11 proteins; therefore calcium mobilization assays can be utilized for functional activity.
(§3) Stable cell lines expressing human and or rodent NMUR1 or human NMUR2 receptors were plated at a density of 12,000 cells per well overnight on poly-lysine coated 384-well black-walled plates. The following day, the media was removed from the plates and the cells were subsequently loaded with Fluo-3 (Molecular Probes), a calcium sensitive dye, diluted in FLIPR buffer (1× Hank's buffered saline containing 20 mM HEPES, 0.1% BSA, 2.5 mM probenecid (Sigma) and 1.6 mM TR40). All reagents are from Invitrogen unless otherwise noted. Peptide stocks were resuspended in DMSO at a stock concentration of 2 mM and diluted in FLIPR buffer on the day of the experiment to a 4 μM working stock solution.
(§4) After a 90 minute incubation at room-temperature, cell plates were loaded onto a FLIPR (Molecular Devices) to monitor cellular fluorescence (excitation=488 nm; emission=540 nm) before and after compound/peptide addition. Eight to twelve point dose responses were tested on NMUR-expressing cell lines using FLIPR with 1 μM peptide as the highest dose. The response after peptide addition was taken as the maximum fluorescence units minus the fluorescence immediately prior to stimulation for each well. EC50 values were calculated using GraphPad Prism (San Diego, Calif.) software.
(§5) In vitro responses of Neuromedin U receptor agonists (NMU1 to NMU25) in the FLIPR assay for human (Table 3), mouse (Table 4) and rat (Table 5) NMUR1 and NMUR2. EC50s are reported in nM values. Percent activity refers to the maximum response at 1 μM compared to the hNMU-25 response at the same concentration. NT=not tested.

Mouse NMUR1-CTG = molecular target: T2, Mouse NMUR1-CTG (Mus musculus, UniProt O55040); assay: FLIPR calcium mobilization assay, mouse NMUR1-CTG; format: cell-based; set-up: expressed in transfected cells; host or cells: FLP-In CHO or HEK-293 FLP-In cells (pcDNA5); details: for EC50: FLIPR
T2 sequence (O55040 1-428): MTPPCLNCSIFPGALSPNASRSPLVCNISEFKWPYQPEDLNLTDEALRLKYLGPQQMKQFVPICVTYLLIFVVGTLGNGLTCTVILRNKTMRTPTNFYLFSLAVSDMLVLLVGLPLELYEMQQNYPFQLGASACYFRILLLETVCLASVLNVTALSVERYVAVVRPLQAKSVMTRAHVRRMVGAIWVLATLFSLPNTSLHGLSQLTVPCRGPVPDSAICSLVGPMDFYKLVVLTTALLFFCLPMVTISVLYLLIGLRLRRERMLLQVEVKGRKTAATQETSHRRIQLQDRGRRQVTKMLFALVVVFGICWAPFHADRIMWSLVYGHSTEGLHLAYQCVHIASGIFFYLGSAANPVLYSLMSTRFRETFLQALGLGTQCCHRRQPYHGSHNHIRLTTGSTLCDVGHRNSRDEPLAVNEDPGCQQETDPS
Source text: as §1, §2, §3, §4, §5

[1] = maximum response at 1 μM compared to hNMU-25, rat NMUR1-ATG
[2] = maximum response at 1 μM compared to hNMU-25, mouse NMUR1-CTG

Row | Molecule | % Activity (rat NMUR1-ATG; [1]) [%] | % Activity (Mouse NMUR1-CTG; [2]) [%] | EC50 (rat NMUR1-ATG; rat NMUR1-ATG) [nM] | further results
1 | CCN1C(=O)CC(SC[C@H](NC(C)=O)C(=O)N[C@@H](Cc2ccccc2)C(=O)N[C@@H](CCCNC(=N)N)C(=O)N[C@H](C(=O)N[C@@H](CC(=O)O)C(=O)N[C@@H](CCC(=O)O)C(=O)N[C@@H](CCC(=O)O)C(=O)N[C@@H](Cc2ccccc2)C(=O)N[C@@H](CCC(N)=O)C(=O)N[C@@H](CO)C(=O)N2CCC[C@H]2C(=O)N[C@@H](Cc2ccccc2)C(=O)N[C@@H](C)C(=O)N[C@@H](CO)C(=O)N[C@@H](CCC(N)=O)C(=O)N[C@@H](CO)C(=O)N[C@@H](CCCNC(=N)N)C(=O)NCC(=O)N[C@@H](Cc2ccc(O)cc2)C(=O)N[C@@H](Cc2ccccc2)C(=O)N[C@@H](CC(C)C)C(=O)N[C@@H](Cc2ccccc2)C(=O)N[C@@H](CCCNC(=N)N)C(=O)N2CCC[C@H]2C(=O)N[C@@H](CCCNC(=N)N)C(=O)N[C@@H](CC(N)=O)C(N)=O)C(C)C)C1=O (some centres unmarked) [NMU8] (Ac-C(Succinimide(1-Et,3-yl))FRVDEEFQSPFASQSRGYFLFRPRN-NH2) | 97.2 | 100 |  | 
2 | H-FRVDEEFQSPFASQSRPYFLFRPRN-NH2 [NMU4] | 100 | 100 |  | 
3 | Ac-FRVDEEFQSPFASQSRPYFLFRPRN-NH2 [NMU5] | 100 | 100 |  | 
4 | Ac-FRVDEEFQSPFASQSRGYFLFRPRN-NH2 [NMU2] | 89.2 | 100 |  | 
5 | CC(C)C[C@@H](NC(=O)[C@H](Cc1ccccc1)NC(=O)[C@H](Cc1ccc(O)cc1)NC(=O)CNC(=O)[C@H](CCCNC(=N)N)NC(=O)[C@H](CO)NC(=O)[C@H](CCC(N)=O)NC(=O)[C@H](CO)NC(=O)[C@H](C)NC(=O)[C@H](Cc1ccccc1)NC(=O)[C@@H]1CCCN1C(=O)[C@H](CO)NC(=O)[C@H](CCC(N)=O)NC(=O)[C@H](Cc1ccccc1)NC(=O)[C@H](CCC(=O)O)NC(=O)[C@H](CCC(=O)O)NC(=O)[C@H](CC(=O)O)NC(=O)[C@@H](NC(=O)[C@H](CCCNC(=N)N)NC(=O)[C@@H](N)Cc1ccccc1)C(C)C)C(=O)N[C@@H](Cc1c[nH]c2ccccc12)C(=O)N[C@@H](CCCNC(=N)N)C(=O)N1CCC[C@H]1C(=O)N[C@@H](CCCNC(=N)N)C(=O)N[C@@H](CC(N)=O)C(N)=O [Agonist H] (H-FRVDEEFQSPFASQSRGYF[dL]WRPRN-NH2; N-terminus assumed) |  |  |  | IC50 (rat NMUR1-ATG; functional data, rat R1-ATG): 31.1 nM; % Activity (rat NMUR1-ATG; functional, rat R1-ATG, relative to native hNMU responses): 95%; IC50 (Mouse NMUR1-CTG; functional data, mouse R1-CTG): 66 nM; % Activity (Mouse NMUR1-CTG; functional, mouse R1-CTG, relative to native hNMU responses): 77%
6 | CC(=O)N[C@@H](CSCC(=O)O[C@H]1CC[C@@]2(C)C(=CC[C@H]3[C@@H]4CC[C@H]([C@H](C)CCCC(C)C)[C@@]4(C)CC[C@@H]32)C1)C(=O)NCC(=O)N[C@@H](Cc1ccc(O)cc1)C(=O)N[C@@H](Cc1ccccc1)C(=O)N[C@@H](CC(C)C)C(=O)N[C@@H](Cc1ccccc1)C(=O)N[C@@H](CCCNC(=N)N)C(=O)N1CCC[C@H]1C(=O)N[C@@H](CCCNC(=N)N)C(=O)N[C@@H](CC(N)=O)C(N)=O [NMU11] (Ac-C(X1)GYFLFRPRN-NH2) | 50.9 | 65.0 |  | 
7 | GYFLFRPRN-NH2 [NMU3] | 100 | 100 |  | 

Now from value to molecule, other results behind:

Row | % Activity (rat NMUR1-ATG; [1]) [%] | % Activity (Mouse NMUR1-CTG; [2]) [%] | EC50 (rat NMUR1-ATG; rat NMUR1-ATG) [nM] | Molecule | further results
8 | 76.4 | 50.9 | 127 | Ac-C4-C4-FRVDEEFQSPFASQSRGYFLFRPRN-CONH2 ({Ac-C(PEG 20 kDa)-C(PEG 20 kDa)}-FRVDEEFQSPFASQSRGYFLFRPRN-NH2) [NMU23, C4 = Cys(PEG)20 kDa] | EC50 (Mouse NMUR1-CTG; mouse NMUR1-CTG): 770 nM
9 | 99.6 |  | 20.1 | Pam-C2FRVDEEFQSPFASQSRGYFLFRPRN-CONH2 ({Palmitoyl-C(PEG 40 kDa)}-FRVDEEFQSPFASQSRGYFLFRPRN-NH2) [NMU25, Pam = palmitoyl; C2 = Cys(PEG)240 kDa] | EC50 (Mouse NMUR1-CTG; mouse NMUR1-CTG): 60.3 nM
10 | 99.9 | 90.8 | 19.5 | Ac-C4FRVDEEFQSPFASQSRGYFLFRPRN-CONH2 ({Ac-C(PEG 20 kDa)}-FRVDEEFQSPFASQSRGYFLFRPRN-NH2) [NMU21, C4 = Cys(PEG)20 kDa] | EC50 (Mouse NMUR1-CTG; mouse NMUR1-CTG): 56.3 nM
11 | 100 | 100 |  | CCN1C(=O)CC(SC[C@H](NC(C)=O)C(=O)N[C@@H](CSC2CC(=O)N(CC)C2=O)C(=O)N[C@@H](Cc2ccccc2)C(=O)N[C@@H](CCCNC(=N)N)C(=O)N[C@H](C(=O)N[C@@H](CC(=O)O)C(=O)N[C@@H](CCC(=O)O)C(=O)N[C@@H](CCC(=O)O)C(=O)N[C@@H](Cc2ccccc2)C(=O)N[C@@H](CCC(N)=O)C(=O)N[C@@H](CO)C(=O)N2CCC[C@H]2C(=O)N[C@@H](Cc2ccccc2)C(=O)N[C@@H](C)C(=O)N[C@@H](CO)C(=O)N[C@@H](CCC(N)=O)C(=O)N[C@@H](CO)C(=O)N[C@@H](CCCNC(=N)N)C(=O)NCC(=O)N[C@@H](Cc2ccc(O)cc2)C(=O)N[C@@H](Cc2ccccc2)C(=O)N[C@@H](CC(C)C)C(=O)N[C@@H](Cc2ccccc2)C(=O)N[C@@H](CCCNC(=N)N)C(=O)N2CCC[C@H]2C(=O)N[C@@H](CCCNC(=N)N)C(=O)N[C@@H](CC(N)=O)C(N)=O)C(C)C)C1=O (some centres unmarked) [NMU22] (Ac-C(Succinimide(1-Et,3-yl))C(Succinimide(1-Et,3-yl))FRVDEEFQSPFASQSRGYFLFRPRN-NH2) | 
12 | 80.8 | 56.1 |  | CCCCCCCCCCCCCCCC(=O)N[C@@H](CSC1CC(=O)N(CC)C1=O)C(=O)N[C@@H](Cc1ccccc1)C(=O)N[C@@H](CCCNC(=N)N)C(=O)N[C@H](C(=O)N[C@@H](CC(=O)O)C(=O)N[C@@H](CCC(=O)O)C(=O)N[C@@H](CCC(=O)O)C(=O)N[C@@H](Cc1ccccc1)C(=O)N[C@@H](CCC(N)=O)C(=O)N[C@@H](CO)C(=O)N1CCC[C@H]1C(=O)N[C@@H](Cc1ccccc1)C(=O)N[C@@H](C)C(=O)N[C@@H](CO)C(=O)N[C@@H](CCC(N)=O)C(=O)N[C@@H](CO)C(=O)N[C@@H](CCCNC(=N)N)C(=O)NCC(=O)N[C@@H](Cc1ccc(O)cc1)C(=O)N[C@@H](Cc1ccccc1)C(=O)N[C@@H](CC(C)C)C(=O)N[C@@H](Cc1ccccc1)C(=O)N[C@@H](CCCNC(=N)N)C(=O)N1CCC[C@H]1C(=O)N[C@@H](CCCNC(=N)N)C(=O)N[C@@H](CC(N)=O)C(N)=O)C(C)C (some centres unmarked) [NMU24] (Palmitoyl-C(Succinimide(1-Et,3-yl))FRVDEEFQSPFASQSRGYFLFRPRN-NH2) | 
13 |  |  | 9.7 | Ac-C2FRVDEEFQSPFASQSRGYFLFRPRN-CONH2 [NMU9] ({Ac-C(PEG 40 kDa)}-FRVDEEFQSPFASQSRGYFLFRPRN-NH2) [C2 = Cys(PEG)240 kDa from Nektar (mPEG2-MAL-40 k)] | 
